According to EP0345100A1, “Preparation of PAF receptors and method of quantity determination of PAF” (INSTITUT PASTEUR, priority 1988, dated 1989):

Target: T1, récepteur du PAF (Oryctolagus cuniculus, UniProt G1TEI7)
T1 construct: préparation membranaire de plaquettes de lapin; from tissue; host or cells: rabbit blood platelets, lysed by freeze/thaw, membrane pellet
Assay: Competitive binding of [³H]PAF to rabbit platelet membrane preparations (radioreceptor assay, vacuum filtration)
Set-up: species or system lapin
Experimental: - 1 Aliquot de préparation membranaire de plaquettes de lapin (A) - 1 Aliquot de préparation de récepteur du PAF conforme à l'invention (B), - PAF marqué au Tritium, activité spécifique 56 Ci/mmole (DU PONT DE NEMOURS (Boston MA, USA).) - PAF non marqué (BACHEM, Budendorf, Suisse).
Des aliquots de préparations membranaires de plaquettes de lapin (∼100 µg) sont incubés pour un volume final de 200 µl de solution contenant 1 nM de /³H/PAF (15300 cpm) et soit une quantité de PAF non marqué connue (gamme de référence), soit un aliquot de dilution de l'extrait à doser. […]
Les filtres sont placés dans des fioles de comptage avec 4 ml de liquide scintillant (Atomlight NEN). La radioactivité est quantifiée sur compteur à scintillation LKB Rack beta 1214.
La différence entre la quantité de [³H]PAF lié aux membranes en absence et en présence d'un excès de PAF non marqué (1000 x [³H] PAF) est considérée comme liaison spé-cifique maximale (B˙). […]
4.2. […] Le pourcentage de [³H ]PAF lié spécifiquement aux préparations en présence de ces différentes concentrations est déterminé par rapport à la quantité de [³H ]PAF lié spécifiquement en absence de PAF standard non marqué (B/Bo : B : cpm de [³H ]PAF lié aux membranes en pré-sence de PAF standard (liaison non spécifique déduite). Bo : cpm de [³H ]PAF lié aux membranes en absence de PAF standard (liaison non spécifique déduite). […]

T1 sequence (G1TEI7 1-342): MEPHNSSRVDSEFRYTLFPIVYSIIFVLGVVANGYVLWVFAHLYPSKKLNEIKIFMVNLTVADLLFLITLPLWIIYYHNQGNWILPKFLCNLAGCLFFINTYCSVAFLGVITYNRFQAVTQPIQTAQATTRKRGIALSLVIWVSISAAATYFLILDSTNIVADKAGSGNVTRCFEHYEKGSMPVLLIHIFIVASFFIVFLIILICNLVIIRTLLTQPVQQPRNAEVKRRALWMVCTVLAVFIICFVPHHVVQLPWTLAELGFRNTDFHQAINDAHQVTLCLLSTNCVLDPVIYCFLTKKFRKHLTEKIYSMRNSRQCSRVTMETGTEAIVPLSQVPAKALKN

1-0-alkyl-2-acétyl-sn-glycérol-3-phosphorylcholine [PAF standard]
ED₅₀ (dose de PAF standard nécessaire pour inhiber 50 % de la liaison spécifique) (1 nM [³H]PAF, + 4° C, 1 heure 30, four experiments taken at random): 0,63 + 0,15 ng/tube

CCCCCCCCCCCCCCCCOC[C@@H](O)COP(=O)([O-])OCC[N+](C)(C)C [lyso-PAF]
reconnaissance par le site de liaison utilisé pour le dosage (dose maximale testée : 10⁻⁶M, Figure 2 (B/Bo)): ne sont pas reconnus
